Results as given in ChEMBL document CHEMBL1122659, “Synthesis of some phosphonates with antiherpetic activity” (1984).
The source made the active and inactive calls. The rule behind the calls is not given here.

Organism: Oryctolagus cuniculus
Assay: In vitro ability to inhibit the herpes HSV-2 virus; Inactive
Format: functional, organism-based
Details: herpes simplex virus

| Compound | MIC |
| --- | --- |
| CCOP(=O)(CCCCCCOc1c(OC)cccc1OC)OCC | inactive |
| CCOP(=O)(CCCCCCOc1ccc(Br)cc1)OCC | inactive |
| CCOP(=O)(CCCCCCOc1ccc(C(=O)O)cc1)OCC | inactive |
| CCOP(=O)(CCCCCCOc1ccc(Cl)cc1)OCC | inactive |
| CCOP(=O)(CCCCCOc1ccc(OC)cc1Cl)OCC | inactive |
| CCOP(=O)(CCCCOc1ccc(OC)cc1Cl)OCC | inactive |
